# Test results taken from US9309224B2 (Deciphera Pharmaceuticals, LLC, priority 2013, dated 2016).
# How the values were obtained:
# PC-3 M-luc cells = assay: PC-3 peritibial implant model of cancer bone metastasis; format: in vivo, mouse; conditions: oral gavage twice daily; score 0-4; vehicle-treated animals score 4
# From the text: PC-3 Peritibial Implant Model of Cancer Bone Metastasis To evaluate in vivo anti-cancer activity of compounds of formula I, the PC-3 M-luc peritibial injection model of bone invasiveness model was employed. Briefly, PC-3 M-luc cells were obtained from Xenogen Corporation (Caliper Life Sciences) and expanded using MEM media modified with L-Glutamine (Cell Gro® #10-045-CV) supplemented with 10% fetal bovine serum, 1% penicillin-streptomycin-glutamine, 1% non-essential amino acids, and 1% MEM vitamins in 5% CO2 atmosphere at 37° C. Six to 7 week old male nude mice (Crl:NU-Foxn1nu) were obtained from Charles River Laboratories. Test mice were implanted peritibially on Day 0 with 1×10^6 cells/mouse (0.1 mL) using an insulin syringe with a fixed 28-gauge needle. The needle was inserted at the ankle between the tibia and fibula until the bevel of the needle reaches approximately half way between the knee and ankle Treatments began on Day 0. Animals were dosed by oral gavage twice daily for the study duration. All procedures carried out in this experiment were conducted in compliance with all the laws, regulations and guidelines of the National Institutes of Health (NIH). […] Lesions in the right hind limb were scored with values of 0, 1, 2, 3, or 4 based on a qualitative assessment of lesion size as defined by: 0: Normal Bone 1: Minimal lesions. […]
# [1] = target: T1, phospho-FMS in THP-1 cells (Homo sapiens, UniProt P07333); assay: Phospho-FMS ELISA assay in THP-1 cells; format: cell-based; conditions: 4 hours compound, M-CSF stimulated; read-out: pFMS inhibition in THP-1 cells
# T1 construct: endogenous in cells; host or cells: THP-1 (ATCC TIB-202)
# T1 sequence (P07333 20-972): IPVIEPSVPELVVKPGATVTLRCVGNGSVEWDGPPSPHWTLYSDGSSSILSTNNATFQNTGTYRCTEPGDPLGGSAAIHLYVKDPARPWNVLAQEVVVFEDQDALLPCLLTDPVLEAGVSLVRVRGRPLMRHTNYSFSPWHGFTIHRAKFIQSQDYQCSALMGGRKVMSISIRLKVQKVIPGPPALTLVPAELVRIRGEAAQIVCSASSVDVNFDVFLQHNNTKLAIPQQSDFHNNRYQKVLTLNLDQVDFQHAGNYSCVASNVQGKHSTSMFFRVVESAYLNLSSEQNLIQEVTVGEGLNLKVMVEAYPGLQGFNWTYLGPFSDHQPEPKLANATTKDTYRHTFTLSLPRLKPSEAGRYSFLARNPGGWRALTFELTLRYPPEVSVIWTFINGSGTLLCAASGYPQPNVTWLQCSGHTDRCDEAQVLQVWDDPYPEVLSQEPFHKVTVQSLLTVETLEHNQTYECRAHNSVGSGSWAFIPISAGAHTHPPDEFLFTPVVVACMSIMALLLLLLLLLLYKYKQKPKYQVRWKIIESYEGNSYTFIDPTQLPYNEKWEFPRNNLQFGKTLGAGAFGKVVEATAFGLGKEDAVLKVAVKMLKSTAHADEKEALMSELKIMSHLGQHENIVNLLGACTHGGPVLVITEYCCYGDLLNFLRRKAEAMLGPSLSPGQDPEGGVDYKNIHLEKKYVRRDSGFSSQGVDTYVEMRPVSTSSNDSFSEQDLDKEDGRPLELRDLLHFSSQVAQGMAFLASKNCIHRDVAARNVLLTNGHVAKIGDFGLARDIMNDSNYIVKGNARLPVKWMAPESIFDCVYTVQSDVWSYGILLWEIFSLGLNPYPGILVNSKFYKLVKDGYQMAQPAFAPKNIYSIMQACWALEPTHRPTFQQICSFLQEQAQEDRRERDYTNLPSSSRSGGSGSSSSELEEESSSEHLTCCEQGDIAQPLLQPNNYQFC
# Description: In a separate 96 well black clear bottom plate, one hundred and fifty thousand THP-1 cells were added per well in 100 μL in assay medium. Fifty microliters of diluted compound was then added to the cells. […] Lysates were prepared and used to perform the phospho-FMS ELISA as described by the manufacturer (catalog #DYC3268, R & D Systems, Minneapolis, Minn.). GraphPad Prism was used to calculate IC50 values obtained from data generated from the ELISA assay.
smiles,measurement,setting,value
"CN1CCN(C(=O)Nc2cc(Oc3ccc(NC(=O)NC(=O)C(C)(C)C)nc3)ccn2)CC1 [Example 45, 4-methyl-N-(4-((6-(3-pivaloylureido)pyridin-3-yl)oxy)pyridin-2-yl)piperazine-1-carboxamide]",lesion score,PC-3 M-luc cells,3
same,IC50,[1],< 0.01 µM
